The source of these data is ChEMBL document CHEMBL1201862, “PubChem BioAssay data set” (2004).

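Step 1: Grow cells in 96-well plates. Step 2: Expose to compound for 48 hours at 5 concentrations. Step 3: Interpolate endpoints linearly; if unreached, use highest concentration. At the GI50, growth is halved.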 Active and inactive are the calls of the source. No stated cut-off is given here; in the data, active = GI50 up to about 1.1 µM and inactive = higher.

Some test systems named below: 786-0; A498; DU-145; HCT-116; HCT-15; HOP-92; HT-29; Hs-578T; IGROV-1; KM12; MOLT-4; NCI-H460; RPMI-8226; SNB-75; T47D; U-251; UACC-62; UO-31; NCI-H226.
Holding throughout (experiment): NCI anticancer screen, dose series, 48 h

On to `CC1(C)O[C@H]2OC(CO)C(N=[N+]=[N-])[C@H]2O1` (stereo not given in full), for which the GI50 was > 100 µM (inactive) in the experiment on 786-0; > 100 µM (inactive) in the experiment with A498; > 100 µM (inactive) with DU-145; > 100 µM (inactive) with HCT-116; > 100 µM in the experiment with HCT-15; > 100 µM (inactive) in the experiment with HOP-92. For the same molecule, the GI50 in the experiment with HT-29, in the experiment with Hs-578T, in the experiment with IGROV-1, with KM12, in the experiment with MOLT-4 and in the experiment on NCI-H460 was > 100 µM (inactive) each time. The GI50 in the experiment on RPMI-8226, in the experiment with SNB-75, with T47D, in the experiment with U-251, with UACC-62 and in the experiment on UO-31 was > 100 µM (inactive) each time.

Take `CC(=O)N1NC(c2ccccc2)=CC(=O)/C1=C/C(=O)c1ccccc1`: the GI50 with 786-0 is > 100 µM (inactive); in the experiment on A498 it was > 100 µM (inactive); in the experiment with DU-145, > 100 µM (inactive); with HCT-116, 62.2 µM (inactive); in the experiment with HCT-15, 70.8 µM; with HOP-92, 34.5 µM (inactive). In addition, the GI50 in the experiment with HT-29 was > 100 µM (inactive); with Hs-578T, 39.9 µM (inactive); in the experiment with IGROV-1 it was 34.3 µM (inactive); in the experiment with KM12, 75.5 µM (inactive); in the experiment with MOLT-4, 52.5 µM (inactive); in the experiment with NCI-H226, 93.8 µM (inactive). The GI50 is 71.1 µM (inactive) in the experiment on NCI-H460; 31.3 µM (inactive) with RPMI-8226; 39.3 µM (inactive) in the experiment with T47D; > 100 µM (inactive) with U-251; 42.5 µM (inactive) in the experiment on UACC-62; 98.4 µM (inactive) in the experiment on UO-31.

For `COC(=O)/C=C\c1ccc2c(c1)CC1(C2)Cc2ccc(/C=C/C(=O)OC)cc2C1` (stereo not given), the GI50 was 19.6 µM (inactive) with 786-0; > 10 µM (inactive) in the experiment with A498; > 100 µM (inactive) with DU-145; 24.4 µM (inactive) in the experiment on HCT-116; > 31.6 µM in the experiment with HCT-15; 28.4 µM (inactive) in the experiment with HOP-92. Also, the GI50 in the experiment with HT-29, with Hs-578T, in the experiment with IGROV-1, in the experiment with KM12, with MOLT-4 and with NCI-H226 was > 31.6 µM (inactive) in each case. Further, the GI50 was > 100 µM (inactive) in the experiment on NCI-H460; > 31.6 µM (inactive) in the experiment on RPMI-8226; 1.09 µM (active) with SNB-75; > 31.6 µM (inactive) in the experiment with T47D; 20.7 µM (inactive) in the experiment on U-251; > 31.6 µM (inactive) with UACC-62. In addition, in the experiment with UO-31, the GI50 is > 31.6 µM (inactive).

For `C/N=c1\ss/c(=N\C(=S)N(C)C)n1-c1ccccc1`, the GI50 in the experiment on 786-0 was 38.3 µM (inactive); in the experiment with A498, 44.6 µM (inactive); with HCT-116 it was > 72.8 µM (inactive); with HCT-15 it was > 100 µM; in the experiment with HOP-92, 39.5 µM (inactive); in the experiment on HT-29, > 31.6 µM (inactive). Besides, the GI50 with IGROV-1 is 97.7 µM (inactive); in the experiment on KM12, > 100 µM (inactive); in the experiment with MOLT-4, > 100 µM (inactive); in the experiment on NCI-H226 it was > 100 µM (inactive); with NCI-H460, > 100 µM (inactive); in the experiment on RPMI-8226, > 100 µM (inactive). Moreover, the GI50 in the experiment with SNB-75 was 17.3 µM (inactive); in the experiment on U-251, 67 µM (inactive); in the experiment on UACC-62 it was > 22.9 µM (inactive); with UO-31, > 55.7 µM (inactive).

As to `CC1C[C@]2(C)C(=S)Nc3ccccc3[C@@H]2Nc2ccccc21` (stereo not given in full), the GI50 in the experiment with 786-0 was 16.3 µM (inactive); in the experiment on A498, 21.5 µM (inactive); in the experiment with DU-145, 4 µM (inactive); in the experiment with HCT-116, 12.6 µM (inactive); in the experiment on HCT-15, 21.6 µM; with HOP-92, 12.2 µM (inactive). Further, the GI50 in the experiment on HT-29 is 11.9 µM (inactive); in the experiment on Hs-578T, 35.2 µM (inactive); with IGROV-1 it was 18.3 µM (inactive); with KM12, 15.5 µM (inactive); in the experiment on MOLT-4, 17.5 µM (inactive); in the experiment on NCI-H226, 17.3 µM (inactive). Also, the GI50 is 13.2 µM (inactive) with NCI-H460; 23.4 µM (inactive) in the experiment with RPMI-8226; 13.9 µM (inactive) in the experiment on SNB-75; 17.9 µM (inactive) in the experiment on T47D; 18 µM (inactive) with UACC-62; 18.7 µM (inactive) in the experiment on UO-31.

As to `COC(=O)[C@@H]1CN(C(=O)CCc2ccccc2)C(=O)N1C(=O)OCc1ccccc1`, the GI50 was > 100 µM (inactive) in the experiment with 786-0; > 100 µM (inactive) in the experiment with A498; > 100 µM (inactive) in the experiment with DU-145; > 100 µM (inactive) with HCT-116; > 100 µM with HCT-15; > 100 µM (inactive) in the experiment on HOP-92. Further, the GI50 with HT-29 was > 100 µM (inactive); in the experiment with Hs-578T it was 57.1 µM (inactive); in the experiment with IGROV-1 it was > 100 µM (inactive); in the experiment on KM12, > 100 µM (inactive); in the experiment with MOLT-4, > 100 µM (inactive); with NCI-H226 it was > 100 µM (inactive). Also, the GI50 in the experiment with NCI-H460 was 59.4 µM (inactive); in the experiment on RPMI-8226 it was > 100 µM (inactive); in the experiment with SNB-75, > 100 µM (inactive); in the experiment on T47D, 38.5 µM (inactive); with U-251, > 100 µM (inactive); in the experiment on UACC-62, > 100 µM (inactive). Besides, in the experiment with UO-31, the GI50 is > 100 µM (inactive).

On to `COC(=O)C1=C(OC)c2cc3c(cc2C(c2cc(OC)c(OC)c(OC)c2)C1C(=O)OC)OCO3` (stereo not given), for which the GI50 with 786-0 was > 100 µM (inactive); in the experiment with A498, 43.2 µM (inactive); in the experiment with HCT-116, > 100 µM (inactive); in the experiment with HCT-15, > 100 µM; in the experiment on HOP-92, 48.9 µM (inactive); in the experiment with HT-29 it was > 100 µM (inactive). The GI50 with IGROV-1 is > 100 µM (inactive); with KM12, > 100 µM (inactive); with MOLT-4, 30.5 µM (inactive); with NCI-H226 it was > 100 µM (inactive); in the experiment on NCI-H460 it was > 100 µM (inactive); in the experiment on RPMI-8226 it was 40.6 µM (inactive). For the same molecule, the GI50 in the experiment on SNB-75, in the experiment on U-251, with UACC-62 and with UO-31 was > 100 µM (inactive) each time.

For the molecule `C/C(=N\NC(=S)Nc1ccc([N+](=O)[O-])cc1S(=O)(=O)O)c1ccccn1`, the GI50 in the experiment with 786-0 was 59.8 µM (inactive); with A498 it was 36.7 µM (inactive); with HCT-116, 28.4 µM (inactive); with HCT-15, 37.6 µM; with HOP-92, 41.9 µM (inactive); in the experiment with HT-29, 34.6 µM (inactive). In addition, the GI50 was 73.1 µM (inactive) in the experiment on IGROV-1; 51.8 µM (inactive) in the experiment with KM12; 40.1 µM (inactive) in the experiment on MOLT-4; 37.4 µM (inactive) in the experiment on NCI-H226; 25.7 µM (inactive) with NCI-H460; 40 µM (inactive) in the experiment with RPMI-8226. Moreover, the GI50 with SNB-75 is 43 µM (inactive); in the experiment with U-251, 33.5 µM (inactive); in the experiment with UACC-62, 73.8 µM (inactive); with UO-31, 45.6 µM (inactive).

For `CC1(C)[C@@H](Cn2cnc3c(O)nc(N)nc32)CC[C@@]1(C)CO`, the GI50 is > 100 µM (inactive) in the experiment with 786-0; > 100 µM (inactive) with A498; > 100 µM (inactive) in the experiment on DU-145; > 100 µM (inactive) in the experiment on HCT-116; > 100 µM in the experiment on HCT-15; > 100 µM (inactive) in the experiment on HOP-92. The GI50 was > 100 µM (inactive) in the experiment on Hs-578T; > 100 µM (inactive) in the experiment with KM12; 1.34 µM (inactive) in the experiment on MOLT-4; > 100 µM (inactive) in the experiment with NCI-H226; > 100 µM (inactive) in the experiment on RPMI-8226; > 100 µM (inactive) in the experiment with SNB-75. For the same molecule, the GI50 in the experiment on T47D is > 100 µM (inactive); in the experiment with U-251, > 100 µM (inactive); with UACC-62, 60.5 µM (inactive); in the experiment on UO-31, > 100 µM (inactive).

Consider `N#Cc1nn(C2OC(COC(=O)c3ccccc3)C(OC(=O)c3ccccc3)C2OC(=O)c2ccccc2)c2nc[nH]c(=O)c12` (stereo not given), for which the GI50 with 786-0 is 35.9 µM (inactive); in the experiment with A498, 11.4 µM (inactive); in the experiment with DU-145, 42.7 µM (inactive); with HCT-116, 28.8 µM (inactive); in the experiment on HCT-15 it was 40.1 µM; in the experiment on HT-29, 36.2 µM (inactive). In addition, the GI50 in the experiment with Hs-578T was 80.9 µM (inactive); with IGROV-1, 42.7 µM (inactive); in the experiment on MOLT-4 it was 36.6 µM (inactive); in the experiment with NCI-H226, > 100 µM (inactive); with NCI-H460, 30.4 µM (inactive); in the experiment on RPMI-8226, 39.4 µM (inactive). The GI50 in the experiment on SNB-75 was 76 µM (inactive); in the experiment on T47D, 46.2 µM (inactive); in the experiment with U-251 it was 62.5 µM (inactive); in the experiment with UACC-62 it was > 100 µM (inactive); in the experiment on UO-31 it was 56.2 µM (inactive).

As for `FC(F)(F)c1nc(-c2ccccc2)oc1Sc1oc(-c2ccccc2)nc1C(F)(F)F`, the GI50 in the experiment with 786-0 is > 100 µM (inactive); with A498 it was > 100 µM (inactive); with HCT-116, > 100 µM (inactive); with HCT-15 it was > 100 µM; in the experiment on HOP-92, 39.1 µM (inactive); in the experiment with HT-29, > 100 µM (inactive). The GI50 with IGROV-1 was > 100 µM (inactive); with KM12, > 100 µM (inactive); with MOLT-4, > 100 µM (inactive); with NCI-H226, 45.2 µM (inactive); in the experiment on NCI-H460 it was 99.1 µM (inactive); in the experiment with RPMI-8226, 93.3 µM (inactive). For the same molecule, the GI50 in the experiment on SNB-75 is 29.7 µM (inactive); in the experiment with U-251, 54.6 µM (inactive); with UACC-62, > 100 µM (inactive); in the experiment with UO-31, > 100 µM (inactive).

Consider `CC(C)OC(=O)c1cc(NC(=O)C(C)(C)C)c(F)cc1Cl`, for which the GI50 in the experiment with 786-0 is > 100 µM (inactive); with A498, > 100 µM (inactive); in the experiment with HCT-116, > 100 µM (inactive); in the experiment with HCT-15, > 100 µM; with HOP-92, > 100 µM (inactive); in the experiment with HT-29, > 100 µM (inactive). The GI50 in the experiment with IGROV-1, in the experiment on KM12, in the experiment with MOLT-4, with NCI-H226, with NCI-H460 and in the experiment on RPMI-8226 was > 100 µM (inactive) each time. In addition, the GI50 with SNB-75, with U-251, in the experiment on UACC-62 and in the experiment with UO-31 was > 100 µM (inactive) each time.
